The source of these data is PMC8513058, “Synthesis and Evaluation of Novel 1,2,6-Thiadiazinone Kinase Inhibitors as Potent Inhibitors of Solid Tumors” (Molecules, 2021).

For orientation: IC50 means the midpoint of a concentration-inhibition curve. In general, melting point refers to the temperature, or range, at which the solid turns liquid.

Like-named read-outs stand apart in the source and are kept apart here.

Series [1] concerns 5637 cells. More on the design: method as in PMID 23887605. The settings on record: positive control; cited from earlier work.
Series [2] concerns DU145 cells. Further details: method as in PMID 28373427. The following applies: positive control; cited from earlier work.
Series [3] concerns kinases in SUM159 cell lysates. The series is described as follows: MIBS kinome profiling (MIB-MS competitive displacement). It is filed as binding. The following applies: 1 μM compound vs DMSO, SUM159 lysate; for kinome profile: 350-400 kinases detected. As for the experimental part:
We then assessed the kinome profile of thiadiazinones 16, 17, and 26 all at 1 μM using a multiplexed kinase inhibitor bead set and quantitative mass spectrometry for detection of kinase peptides (MIB-MS). The MIB-MS proteomics was able to detect between 350 and 400 kinases in the cell lysates and competitive displacement of specific kinases from the beads was used to determine the kinome profile of the thiadiazinone kinase inhibitors.
Previously described. Briefly, multiplexed inhibitor beads (MIBS) affinity chromatography/MS analysis: SUM159 cells were cultured in a 50:50 mixture of DMEM and Nutrient Mixture F-12 medium (Gibco) supplemented with 5% fetal bovine serum, 1% anti/anti, […] insulin, and […] hydrocortisone. Cells were maintained at 37 °C in a humidified 5% CO2 atmosphere. SUM159 cells were grown to 80% confluency, washed twice with PBS, and harvested by scraping cells in lysis buffer [50 mM HEPES, pH 7.5, 150 mM NaCl, 0.5% Triton X-100, 1 mM EDTA, 1 mM EGTA, 10 mM NaF, 2.5 mM Na3VO4, complete protease inhibitor cocktail (Roche, Basel, Switzerland), phosphatase inhibitor cocktail 2, and 3 (Sigma, St. Louis, MO, USA)]. Lysates were sonicated then clarified by centrifugation at 14000 V g for 15 min at 4 °C. Lysate was then filtered through a […] syringe filter and frozen at −80 °C until use. Protein concentration was quantified using a Bradford assay the day of the experiment. DMSO or the indicated concentration of 16, 17, and 26 were added to lysate containing 4 mg of total protein. Lysates were vortexed briefly then incubated for 30 min on ice. Kinases were affinity purified as previously described. Briefly, lysates were diluted to 1.33 mg mL^−1 with lysis buffer then NaCl concentration brought to 1 M.
Diluted lysates were passed over a mixture of […] of settled beads of each of the following inhibitors conjugated to ECH Sepharose beads: Purvalanol B, PP58, VI-16832, UNC21474A, UNC8088A, and […] of settled beads conjugated to CTx-0294885 and VI-16832 [69]. The kinase inhibitor–bead conjugates were previously equilibrated in high-salt buffer (50 mM HEPES pH 7.5, 1M NaCl, 0.5% Triton X-100, 1 mM EDTA, and 1 mM EGTA). MIBs columns were sequentially washed with high-salt buffer, low-salt buffer (50 mm HEPES pH 7.5, 150 mM NaCl, 0.5% Triton X-100, 1 mM EDTA, and 1 mM EGTA), and SDS buffer (50 mm HEPES pH 7.5, 150 mm NaCl, 0.5% Triton X-100, 1 mm EDTA, 1 mm EGTA, and 0.1% SDS). Proteins were eluted by boiling samples in elution buffer (100 mM Tris·HCl pH 6.8, 0.5% SDS, and 1% β-mercaptoethanol) for 15 min twice. Dithiothreitol (DTT) was added to a final concentration of 5 mm and samples were incubated at 60 °C for 25 min. Samples were then cooled to room temperature on ice and alkylated by adding iodoacetamide to a final concentration of 20 mm for 30 min in the dark at room temperature. Samples were then concentrated in 10K Amicon Ultra centrifugal concentrators (Millipore, Burlington, MA, USA) followed by methanol and chloroform precipitation of proteins. The final protein pellets were re-suspended in 50 mM HEPES pH 8.0 and incubated with trypsin at 37 °C overnight. Residual detergent was removed by three sequential ethyl acetate extractions then desalted using Pierce C18 spin columns (Thermo Scientific, Waltham, MA, USA) according to the manufacturer’s protocol.

Series [4] in a line: Chemical stability of thiadiazinones under aqueous, nucleophile, oxidizing and reducing conditions. It is filed as physicochemical. The following applies: tested similarly to 3,5-bis(phenylamino)-4H-1,2,6-thiadiazin-4-one: neutral, acidic, slightly basic aqueous, amine or thiol nucleophiles. The text has this: It is important to note that the stability of dianilinothiadiazinones in biological systems has previously been assessed.

For series [5], the system named is 5637 cells. The series is described as follows: Cancer cell line viability screen (alamarBlue), 5637. The following applies: for IC50: 72 h, read-out: IC50 5637.
Experimental: (§1) This included pancreatic, bladder, prostate, breast, chordoma, and lung cancer cell lines while a skin fibroblast cell line was used as a toxicity control [33, 34, 35, 36].
(§2) DU145 and MCF-7 cells were cultured in MEM medium supplemented with 10% FBS and 1% penicillin/streptomycin. […] Cells were seeded in 384-well plates and were treated with test compound in quadruplicate 24 h after plating. Cell viability was assessed at 72 h using alamarBlue (ThermoFisher, Waltham, MA, USA). […] IC50 values were determined by nonlinear regression using GraphPad PrismTM software (GraphPad Software Inc., San Diego, CA, US).
Series [6] concerns MCF-7 cells. Nature of the series: Cancer cell line viability screen (alamarBlue), MCF7. The following applies: Homo sapiens, MCF7, 72 h, read-out: IC50 MCF7. A general note: Resazurin is reduced to fluorescent resorufin, in cell work by metabolically active cells.
Experimental: as §1, §2
Series [7] concerns U-CH1 cells. Nature of the series: Cancer cell line viability screen (alamarBlue), UCH1. The settings on record: UCH1, 72 h, read-out: IC50 UCH1.
Experimental: as §1
(§3) Cells were seeded in 384-well plates and were treated with test compound in quadruplicate 24 h after plating. Cell viability was assessed at 72 h using alamarBlue (ThermoFisher, Waltham, MA, USA). […] IC50 values were determined by nonlinear regression using GraphPad PrismTM software (GraphPad Software Inc., San Diego, CA, US).
Series [8] relates to U-CH2 cells. Nature of the series: Cancer cell line viability screen (alamarBlue), UCH2. The following applies: UCH2, 72 h, read-out: IC50 UCH2.
Experimental: as §1, §3
Series [9] relates to A-431 cells. Nature of the series: Cancer cell line viability screen (alamarBlue), A431. The following applies: Homo sapiens, A-431, 72 h, read-out: IC50 A431.
Experimental: as §1, §3
Series [10] concerns DU145 cells. Nature of the series: Cancer cell line viability screen (alamarBlue), DU145. The following applies: Homo sapiens, DU-145, 72 h, read-out: IC50 DU145.
Experimental: as §1, §2
The test system of series [11] is PANC-1 cells. Nature of the series: Cancer cell line viability screen (alamarBlue), PANC1. The following applies: Homo sapiens, PANC-1, 72 h, read-out: IC50 PANC1.
Experimental: as §1, §2
Series [12] concerns WS-1 cell line. Nature of the series: Toxicity control viability screen (alamarBlue), WS-1 skin fibroblasts. The settings on record: WS1, 72 h, read-out: IC50 WS-1.
Experimental: as §1, §2
The subject of series [13] is MCF-7 cells. The settings on record: read-out: IC50 MCF7, positive control; cited from earlier work.
Series [14] concerns A-431 cells. The settings on record: read-out: IC50 A431, positive control; cited from earlier work.
Series [15] has as its system WS-1 cell line. The following applies: read-out: IC50 WS-1, positive control; cited from earlier work.
The test system of series [16] is PANC-1 cells. More on the design: method as in PMID 22487525. The following applies: positive control; read-out: IC50 PANC1, positive control; cited from earlier work.
Details of series [17]: method as in PMID 29783765. The following applies: previously assessed; cited from earlier work.

For `Cc1ccc(Nc2nccc(N(C)c3ccc4c(C)n(C)nc4c3)n2)cc1S(N)(=O)=O` [pazopanib], in [1], the IC50 was 15 µM.
In the case of `CC(=O)O[C@@]12CO[C@@H]1C[C@H](O)[C@@]1(C)C(=O)[C@H](O)C3=C(C)[C@@H](OC(=O)[C@H](O)[C@@H](NC(=O)OC(C)(C)C)c4ccccc4)C[C@@](O)([C@@H](OC(=O)c4ccccc4)[C@H]21)C3(C)C` [docetaxel], the IC50 in series [2] is 0.005 µM.
In the case of `O=c1c(Nc2cccc(O)c2)nsnc1-c1ccnc2[nH]ccc12` [Compound 16, 3-[(3-Hydroxyphenyl)amino]-5-(1H-pyrrolo[2,3-b]pyridin-4-yl)-4H-1,2,6-thiadiazin-4-one], the melting point is 326 to 327 °C. For the same compound, in series [3], the “kinases competitively displaced from the beads (hits)” value was “weak interactions on MAP4K5, MAP4K3, PRKCD, and PKN1 just below the threshold”; the kinome profile entry is recorded as “narrow spectrum kinome profile”. In addition, the stability result in series [4] is recorded as “the same results”. The “increase in potency on the bladder cancer cell line” value in [5] (16 relative to methoxy analogue 15) amounted to 10 fold. In [5], the half-maximal inhibitory concentration (IC50) was 1.6 µM. The IC50 in [6] was found to be 18 µM. Moreover, the IC50 in [7] came to 46 µM. Moreover, in series [8], the 50% inhibitory concentration (IC50) is above 100 µM. Also, the IC50 in [9] was above 100 µM. For the same compound, in series [10], the IC50 was determined as 41 µM. In addition, the IC50 in [11] turned out to be 33 µM. In series [12], the IC50 was above 100 µM.
As to `CS(=O)(=O)CCNCc1ccc(-c2ccc3ncnc(Nc4ccc(OCc5cccc(F)c5)c(Cl)c4)c3c2)o1` [lapatinib], the figures for the IC50 in series [13], in series [14] and in series [15] were 6.3 µM, 0.1 µM and 13 µM, respectively.
For the compound `Cc1[nH]c2ccccc2c1CCNCc1ccc(/C=C/C(=O)NO)cc1` [panobinostat], the IC50 in series [16] is 1 µM.
Consider `O=c1c(Nc2ccccc2)nsnc1Nc1ccccc1` [3,5-Bis(phenylamino)-4H-1,2,6-thiadiazin-4-one], for which, in series [17], the stability entry was “stable to neutral, acidic, or slightly basic aqueous conditions, the presence of amine or thiol nucleophiles, and oxidizing and reducing conditions”.
Compound `Cc1ccc(Nc2nsnc(-c3ccnc4[nH]ccc34)c2=O)cc1O` [Compound 17, 3-[(3-Hydroxy-4-methylphenyl)amino]-5-(1H-pyrrolo[2,3-b]pyridin-4-yl)-4H-1,2,6-thiadiazin-4-one] yielded a melting point of 292 to 293 °C. Moreover, in series [3], the “kinases competitively displaced from the beads (hits)” value is “AKT2, MAP2K4, MAP2K1, and STK35 being just below the threshold”; the kinome profile entry was “narrow spectrum kinome profile”. In addition, the 50% inhibitory concentration (IC50) in series [5] is 2.1 µM. The IC50 in series [6] came to 14 µM. Further, the IC50 in series [7] was above 100 µM. Further, the 50% inhibitory concentration (IC50) in [8] is above 100 µM. In addition, in series [9], the half-inhibitory concentration (IC50) was above 100 µM. For the same compound, in [10], the 50% inhibitory concentration (IC50) turned out to be 23 µM. For the same compound, the IC50 in [11] was above 100 µM. The IC50 in series [12] is above 100 µM.
